The test system of assay [1] is Wnt activity (Sp5-Luc reporter in SW480 colon carcinoma cells). Kind of assay: Wnt activity screening assay (Sp5-Luc reporter gene assay). It is filed as cell-based, human. Conditions: Homo sapiens; for inhibition at 10 µM: SW480, read-out: percent inhibition at 10 μM; for EC50: Sp5-Luc reporter, SW480 cells, 36 to 48 hours. From the text: The screening assay for Wnt activity is described as follows. Reporter cell lines can be generated by stably transducing cancer cell lines (e.g., colon cancer) or primary cells (e.g., IEC-6 intestinal cells) with a lentiviral construct that includes a Wnt-responsive promoter driving expression of the firefly luciferase gene.
SW480 colon carcinoma cells were transduced with a lentiviral vector expressing luciferase with a human Sp5 promoter consisting of a sequence of eight TCF/LEF binding sites. SW480 cells stably expressing the Sp5-Luc reporter gene and a hygromycin resistance gene were selected by treatment with 150 μg/mL of hygromycin for 7 days. These stably transduced SW480 cells were expanded in cell culture and used for all further screening activities. Each compound was dissolved in DMSO as a 10 mM stock and used to prepare compound source plates. Serial dilution (1:3, 10-point dose-response curves starting from 10 μM) and compound transfer was performed using the ECHO 550 (Labcyte, Sunnyvale, Calif.) into 384-well white solid bottom assay plates (Greiner Bio-One) with appropriate DMSO backfill for a final DMSO concentration of 0.1%. For Sp5-Luc reporter gene assays, the cells were plated at 4,000 cells/well in 384-well plates with a DMEM medium containing 1% fetal bovine serum, and 1% Penicillin-Streptomycin and incubated for 36 to 48 hours at 37° C. and 5% CO2. Following incubation, 15 μl of BriteLite Plus luminescence reagent (Perkin Elmer) was added to each well of the 384-well assay plates. The plates were placed on an orbital shaker for 2 min and then luminescence was quantified using the Envision (Perkin Elmer) plate reader. Readings were normalized to DMSO only treated cells, and normalized activities were utilized for EC50 calculations using the dose-response log (inhibitor) vs. response -variable slope (four parameters) nonlinear regression feature available in GraphPad Prism 5.0 (or Dotmatics).
(In general: Reporter assays use an easily measured gene product as a stand-in for the process of interest.)

Assay [2] has as its system Tau phosphorylation at Ser396 (pSer396), SH-SY5Y cells. Kind of assay: Tau phosphorylation at Ser396 (pSer396) in SH-SY5Y cells, ELISA/western blot.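 Further: cell lysates probed for reduced Tau pSer396 via ELISA (colorimetric) or western blot (chemiluminescence), both with one shared pSer396 antibody, EC50 for lowering phosphorylation.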 The assay is classed as cell-based, human. (An ELISA detects its analyte on a solid surface through an enzyme-linked reagent.)
Assay [3] deals with SW480 colon carcinoma cells. Kind of assay: Cell viability assay (CellTiter-Glo) in SW480 cells.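 Further: SW480 cells stably carrying an Sp5-luciferase TCF/LEF reporter, luminescent ATP signal as viability measure, DMSO-treated cells as control.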 The assay is classed as cell-based, human. As to conditions: Homo sapiens, 96 h; cell viability, SW480 cells, four days, CellTiter-Glo. A general note: ATP-based viability assays read luminescence as a measure of living cells.
Assay [4] deals with LL29 cells (primary human fibroblasts derived from IPF patients), α-smooth muscle actin. In words: Inhibition of fibrotic process: αSMA in TGF-β1-treated primary human fibroblasts from IPF patients (LL29 cells). As to conditions: Homo sapiens, Fibroblast, 96 h; % αSMA-positive LL29 cells, TGF-β1 20 ng/mL, 4 days. It is filed as cell-based. From the text:
Representative compounds were screened using primary human fibroblasts (derived from IPF patients) treated with TGF-β1 to determine their ability to inhibit the fibrotic process.
Primary human fibroblasts derived from IPF patients (LL29 cells) [^1Xiaoqiu Liu, et. al., “Fibrotic Lung Fibroblasts Show Blunted Inhibition by cAMP Due to Deficient cAMP Response Element-Binding Protein Phosphorylation”, Journal of Pharmacology and Experimental Therapeutics (2005), 315(2), 678-687; ^2Watts, K. L., et. al., “RhoA signaling modulates cyclin D1 expression in human lung fibroblasts; implications for idiopathic pulmonary fibrosis”, Respiratory Research (2006), 7(1), 88] were obtained from American Type Culture Collection (ATCC) and expanded in F12 medium supplemented with 15% Fetal Bovine Serum and 1% Penicillin/Streptomycin.
Each compound was dissolved in DMSO as a 10 mM stock and used to prepare compound source plates. Serial dilution (1:2, 11-point dose-response curves from […] to 0.94 nM) and compound transfer was performed using the ECHO 550 (Labcyte, Sunnyvale, Calif.) into 384-well clear bottom assay plates (Greiner Bio-One) with appropriate DMSO backfill for a final DMSO concentration of 0.1%. LL29 cells were plated at 1,500 cells/well in 70 μL/well F12 medium supplemented with 1% Fetal Bovine Serum. TGF-β1 (Peprotech; 20 ng/mL) was added to the plates to induce fibrosis (ref. 1 and 2 above). Wells treated with TGF-31 and containing DMSO were used as positive control, and cells with only DMSO were negative control. Cells were incubated at 37° C. and 5% CO2 for 4 days. Following incubation for 4 days, SYTOX green nucleic acid stain (Life Technologies [Thermo Fisher Scientific]) was added to the wells at a final concentration of 1 μM and incubated at room temperature for 30 min. Cells were then fixed using 4% formaldehyde (Electron Microscopy Sciences), washed 3 times with PBS followed by blocking and permeabilization using 3% Bovine Serum Albumin (BSA; Sigma) and 0.3% Triton X-100 (Sigma) in PBS. Cells were then stained with antibody specific to α-smooth muscle actin (αSMA; Abcam) (ref. 1 and 2 above) in 3% Bovine Serum Albumin (BSA; Sigma) and 0.3% Triton X-100 (Sigma) in PBS, and incubated overnight at 4° C. Cells were then washed 3 times with PBS, followed by incubation with Alexa Flor-647 conjugated secondary antibody (Life Technologies [Thermo Fisher Scientific]) and DAPI in 3% Bovine Serum Albumin (BSA; Sigma) and 0.3% Triton X-100 (Sigma) in PBS at room temperature for 1 hour. Cells were then washed 3 times with PBS and plates were sealed for imaging. αSMA staining was imaged by excitation at 630 nm and emission at 665 nm and quantified using the Compartmental Analysis program on the CellInsight CX5 (Thermo Scientific). Dead or apoptotic cells were excluded from analysis based on positive SYTOX green staining. % of total cells positive for αSMA were counted in each well and normalized to the average of 11 wells treated with TGF-β1 on the same plate using Dotmatics' Studies Software.

A further assay concerns IL-6. Kind of assay: IL-6 inhibition in LPS-stimulated human peripheral blood mononuclear cells (HTRF). Conditions: Homo sapiens, PBMC; IL-6, LPS-stimulated huPBMCs, HTRF. It is filed as cell-based. The procedure:
Fresh Normal PB MNC (Catalog # PB001, AllCells, Alameda, Calif.) were shipped overnight at 4° C. and resuspended in Roswell Park Memorial Institute (RPMI) 1640 Medium, with GlutaMAX Supplement (Catalog #61870127, ThermoFisher Scientific, Waltham, Mass.) supplemented with 1% Penicillin-Streptomycin (Catalog #151401633 ThermoFisher Scientific, Waltham, Mass.) and 1% fetal bovine serum (FBS) (Catalog #16140089, ThermoFisher Scientific, Waltham, Mass.) assay media.
Fresh normal human peripheral blood mononuclear cells (huPBMCs) were resuspended in 1% FBS-RPMI assay media with 1% Penicillin-Streptomycin 1% to a cell concentration of 1×10e6 cells/mL. Each compound was dissolved in DMSO (Catalog # D8418-100 ml, Sigma-Aldrich, St. Louis, Mo.) as a 10 mM stock and used to prepare compound source plates. Serial dilution (1:3, 10-point dose-response curves starting from 10 μM) and compound transfer was performed using the ECHO 550 (Labcyte, Sunnyvale, Calif.) into 384-well white Proxiplate-Plus assay plates (Catalog #6008289, PerkinElmer, Shelton, Conn.) with appropriate DMSO backfill for a final DMSO concentration of 0.25%. huPBMCs were plated at 5000 cells/well in the 384-well Proxiplate-Plus assay plates and incubated at 37° C.-5% CO2 for 2 hours. 50 ng/mL of Lipopolysaccharides from Escherichia coli 0111:B4 (Catalog # L5293-2 ML, Sigma-Aldrich, St. Louis, Mo.) was added after 2 hours and cells were incubated for another 22 hours at 37° C.-5% CO2. After 22 hour incubation, a mixture of anti-IL6 XL665 and anti-IL-6 Cryptate diluted in reconstitution buffer (Catalog #62IL6PEC, Cisbio Inc., Bedford, Mass.) was added to each well. Following incubation for 3 hours at room temperature, Homogeneous Time-Resolved Fluorescence (HTRF) was measured using the Envision (Perkin Elmer, Shelton, Conn.) at 665 nm and […]. The ratio of fluorescence at 665 nm to 620 nm was used as a readout for IL-6 quantification. All samples were processed in duplicate. Readings were normalized to DMSO treated cells and normalized activities were utilized for EC50 calculations. EC50 was determined using software generated by Dotmatics Limited (Windhill Bishops Stortford Herts, UK) using the Levenberg-Marquardt 4 parameter fitting procedure with finite different gradients.

Where [5] appears, read: Homo sapiens, SH-SY5Y cells, overnight (16-18 h), read-out: pSer396 Tau EC50.

Structures are written as SMILES. Read-outs that look alike come from different tables or passages of the source.

The term inhibition denotes the relative decrease from the control value, in per cent. What is called EC50 is the concentration giving half of the maximal effect.

As to `[2H]c1c([2H])c(C(=O)Nc2cc3cc(-c4cncn4C)ccc3cn2)c([2H])c([2H])c1F` [Compound 81, 4-Fluoro-N-(6-(1-methyl-1H-imidazol-5-yl)isoquinolin-3-yl)benzamide-2,3,5,6-d4], the inhibition at 10 µM in assay [1] stood at 36.3%. The half-maximal effective concentration (EC50) in assay [1] was more than 10 µM; in assay [2] (setting [5]), 2.83 µM; in assay [3], 0.486 µM; in assay [4] it was 0.309 µM; in the assay with IL-6, 1.12 µM.
Turning to `Cc1nnc(-c2cc(F)c3cnc(NC(=O)C4CCC(NCC(F)F)CC4)cc3c2)s1` (stereo not shown) [Compound 204], the 50% effective concentration (EC50) in assay [2] (setting [5]) is more than 10 µM.
For the molecule `[2H]C1([2H])N(c2cc(C(=O)Nc3cc4cc(-c5cncn5C)ccc4cn3)ccn2)C([2H])([2H])C([2H])([2H])C([2H])([2H])C1([2H])[2H]` [Compound 75, N-(6-(1-Methyl-1H-imidazol-5-yl)isoquinolin-3-yl)-2-(piperidin-1-yl-d10) isonicotinamide], the concentration for a half-maximal effect (EC50) is 3.5 µM in assay [1]; more than 10 µM in assay [2] (setting [5]); 0.443 µM in assay [3]; 0.45 µM in assay [4]; 0.857 µM in the assay on IL-6.
As to `[2H]C1([2H])N(c2cc(C(=O)Nc3cc4cc(-c5cncn5C)ccc4cn3)ccn2)C([2H])([2H])C([2H])([2H])C1([2H])[2H]` [Compound 78, N-(6-(1-Methyl-1H-imidazol-5-yl)isoquinolin-3-yl)-2-(pyrrolidin-1-yl-d8) isonicotinamide], the EC50 was 3.73 µM in assay [1]; more than 10 µM in assay [2] (setting [5]); 0.468 µM in assay [3]; 0.526 µM in assay [4]; 1.05 µM in the assay on IL-6.
Turning to `[2H]C1([2H])CCC([2H])([2H])N1c1cc(C(=O)Nc2cc3cc(-c4cnc(C)n4C)ccc3cn2)ccn1` [Compound 73, N-(6-(1,2-Dimethyl-1H-imidazol-5-yl)isoquinolin-3-yl)-2-(pyrrolidin-1-yl-2,2,5,5-d4)isonicotinamide], the EC50 was 2.06 µM in assay [1], more than 10 µM in assay [2] (setting [5]), 1.71 µM in assay [4] and 2.07 µM in the assay with IL-6.
With `[2H]C1([2H])OC([2H])([2H])C([2H])([2H])N(c2cc(C(=O)Nc3cc4cc(-c5cncn5C)ccc4cn3)ccn2)C1([2H])[2H]` [Compound 76, N-(6-(1-Methyl-1H-imidazol-5-yl)isoquinolin-3-yl)-2-(morpholino-d8) isonicotinamide], the 50% effective concentration (EC50) is 3.36 µM in assay [1]; more than 10 µM in assay [2] (setting [5]); 0.462 µM in assay [3]; 0.611 µM in assay [4]; 0.927 µM in the assay on IL-6.
For `[2H]c1nc(NC(=O)c2ccnc(N3CCN(C(C)C)CC3)c2)cc2cc(-c3cnn(C)c3)ccc12` [Compound 9, 2-(4-Isopropylpiperazin-1-yl)-N-(6-(1-methyl-1H-pyrazol-4-yl)isoquinolin-3-yl-1-d)isonicotinamide], the EC50 in assay [1] is 0.036 µM; in assay [2] (setting [5]) it was more than 10 µM; in assay [3] it was 0.106 µM; in assay [4], 0.157 µM; in the assay with IL-6, 1.87 µM.
In the case of `CCN1/C(=C/C(C)=O)Sc2ccc(O)cc21` [Indy, reference compound], the EC50 in assay [2] (control DYRK1A inhibitors, printed '>10 M' (μ probably lost), read-out: EC50 in the Tau assay) was more than 10 µM.
Turning to `[2H]C1([2H])OC([2H])([2H])C([2H])([2H])N(c2cc(C(=O)Nc3cc4cc(-c5cnc(C)n5C)ccc4cn3)ccn2)C1([2H])[2H]` [Compound 74, N-(6-(1,2-Dimethyl-1H-imidazol-5-yl)isoquinolin-3-yl)-2-(morpholino-d8) isonicotinamide], in assay [1], the inhibition at 10 µM came to 30.5%. For the same molecule, the EC50 was more than 10 µM in assay [1]; more than 10 µM in assay [2] (setting [5]); 0.479 µM in assay [3]; 1.25 µM in assay [4]; 1.13 µM in the assay with IL-6.
For `COc1ccc2c(c1)[nH]c1c(C)nccc12` [Harmine, reference compound], the EC50 in assay [2] (Homo sapiens, SH-SY5Y, read-out: EC50 in the Tau assay) is more than 10 µM.
On to `[2H]C1([2H])N(c2cc(C(=O)Nc3cc4cc(-c5cnc(C)n5C)ccc4cn3)ccn2)C([2H])([2H])C([2H])([2H])C1([2H])[2H]` [Compound 77, N-(6-(1,2-Dimethyl-1H-imidazol-5-yl)isoquinolin-3-yl)-2-(pyrrolidin-1-yl-d8)isonicotinamide], for which the EC50 in assay [1] was 3.35 µM; in assay [2] (setting [5]) it was more than 10 µM; in assay [4], 2.15 µM; in the assay on IL-6 it was 1.94 µM.

For the origin of these results see patent publication US10604514B2, “6-(5-membered heteroaryl)isoquinolin-3-yl carboxamides and preparation and use thereof” (Samumed, LLC, priority 2017, dated 2020).
